Results on 2 molecules are retold here after US6602516B1, “Antibiotic/medicated gutta percha point” (priority 2000, dated 2003).

Molecules are shown by their SMILES.

The subject of one series is Prevotella intermedius. Kind of series: Naval Dental School antibacterial study of iodoform/gutta percha (FIG. 1). In kind it is cell-based. From the text:
(§1) However, it is not as effective against an oral salivary leakage contamination as determined by the previous leakage and bacterial investigations.
(§2) FIG. 1 is a table illustrating the results from a study at Naval Dental School, Bethesda, Md., the iodoform/gutta percha disclosed in U.S. Pat. No. 5,648,403, issued Jul. 15, 1997.

The test system of a further series is Streptococcus mutans. The description is as above. The conditions noted are these: tested aerobe. In kind it is cell-based.
Source text: as §1, §2

The subject of another series is Actinomyces. The description is as above. In kind it is cell-based.
Source text: as §1, §2

In a further series the test system is Lactobacillus. Described as above. In kind it is cell-based.
Source text: as §1, §2

A further series has as its system Escherchi coli. The series is described as above. In kind it is cell-based. The conditions noted are these: tested aerobe.
Source text: as §1, §2

The subject of the next series is Streptococcus sanguis. The description is as above. In kind it is cell-based. To be noted: tested aerobe.
Source text: as §1, §2

The next series deals with Enterococci faecium. Described as above. The conditions noted are these: facultative anaerobe. In kind it is cell-based.
Source text: as §1, §2

In another series the test system is Staphylococcus aureus. The series is described as above. In kind it is cell-based. The conditions noted are these: tested aerobe.
Source text: as §1, §2

The next series concerns patients. To be noted: more than 1,000 patients; cited from earlier work.

As to `IC(I)I` [Iodoform, Triiodomethane (Iodoform)], the “effectiveness against Prevotella intermedius” value in the series on Prevotella intermedius is reported as “ineffective”. In the series with Streptococcus mutans, the “effectiveness against Streptococcus mutans” value is “ineffective”. In addition, the “effectiveness against Actinomyces” value in the series on Actinomyces is “ineffective”. Besides, the “effectiveness against Lactobacillus” value with Lactobacillus is “ineffective”. In addition, the “effectiveness against Escherchi coli” value in the series on Escherchi coli is reported as “ineffective”. In addition, the “effectiveness against Streptococcus sanguis” value with Streptococcus sanguis is recorded as “ineffective”. The “effectiveness against Enterococci faecium” value in the series with Enterococci faecium was “ineffective”. Further, the “effectiveness against Staphylococcus aureus” value in the series with Staphylococcus aureus is “ineffective”.

`CN(C)[C@@H]1C(O)=C(C(N)=O)C(=O)[C@@]2(O)C(O)=C3C(=O)c4c(O)cccc4[C@@](C)(O)[C@H]3C[C@@H]12` [tetracycline]: the allergic reactions entry in the series on patients was “no allergic reactions”.
